From US9326987B2 (priority 2010, dated 2016)
Where a name gives a salt, the structure may show the parent alone. Read-outs that look alike come from different tables or passages of the source.

Tests used:
A/WS/33 (H1N1) = test: Influenza virus cytoprotection assay in A549 cells (MTS); format: cell-based; conditions: for IC50: 168 h, reduction in viral cytopathic effects, 7 days; for inhibition at 10 µM: 10 μM compound, read-out: inhibition observed at 10 μM
A/Hong Kong/8/68 (H3N2) = test: as above; format: cell-based; conditions: for IC50: 168 h, reduction in viral cytopathic effects, 7 days; for inhibition at 10 µM: 10 μM compound, read-out: inhibition observed at 10 μM
A549 cells = conditions: concentration resulting in 50% cell death, absence of virus; for CC50: read-out: TC50
A/PR/8/34 (H1N1) = test: Influenza virus cytoprotection assay in A549 cells (MTS); format: cell-based; conditions: for IC50: 168 h, reduction in viral cytopathic effects, 7 days; for inhibition at 10 µM: 10 μM compound, read-out: inhibition observed at 10 μM
B/Lee/40 = test: as above; format: cell-based; conditions: A549, 168 h
B/Russia/69 = test: as above; format: cell-based; conditions: unidentified influenza virus, A549, 168 h
A/Victoria/3/75 (H3N2) = test: as above; format: cell-based; conditions: for IC50: 168 h, reduction in viral cytopathic effects, 7 days
in vitro = conditions: human

SMILES	IC50 (A/WS/33 (H1N1))	IC50 (A/Hong Kong/8/68 (H3N2))	IC50 (A/PR/8/34 (H1N1))	IC50 (B/Lee/40)	IC50 (B/Russia/69)	IC50 (A/Victoria/3/75 (H3N2))	CC50 (in vitro)	CC50 (A549 cells; A/PR/8/34 (H1N1))	CC50 (A549 cells; A/Victoria/3/75 (H3N2))	CC50 (A549 cells; A/WS/33 (H1N1))	CC50 (A549 cells; B/Lee/40)	CC50 (A549 cells; B/Russia/69)	inhibition at 10 µM (A/WS/33 (H1N1))	inhibition at 10 µM (A/Hong Kong/8/68 (H3N2))	inhibition at 10 µM (A/PR/8/34 (H1N1))	further results
NC(=O)c1ncn([C@@H]2O[C@H](CO)[C@@H](O)[C@H]2O)n1 [Ribavirin, ribavirin]	7.34 µg/mL	6.59 µg/mL	7.35 µg/mL	6.65 µg/mL	4.75 µg/mL	6.01 µg/mL										TC50 (A549 cells; A/PR/8/34 (H1N1)): >100 µg/mL; TC50 (A549 cells; A/Victoria/3/75 (H3N2)): >100 µg/mL; TC50 (A549 cells; A/WS/33 (H1N1)): >100 µg/mL; TC50 (A549 cells; B/Lee/40): >100 µg/mL; TC50 (A549 cells; B/Russia/69): >100 µg/mL; TC50 (A549 cells; table row A/Hong Kong/8/68 (H3N2)): >100 µg/mL
CC(=O)N[C@H]1[C@H]([C@H](O)[C@H](O)CO)OC(C(=O)O)=C[C@@H]1N=C(N)N [Zanamivir, zinamavir]	0.743 µM	0.871 µM	[…]	2.52 µM	3.25 µM	0.832 µM	> 100 µM	> 100 µM	> 100 µM	> 100 µM	> 100 µM	> 100 µM				
COc1ncc(-c2cc(-c3ncc(CN4C[C@@H](C)O[C@@H](C)C4)o3)c3cn[nH]c3c2)cc1NS(C)(=O)=O [Compound B, N-[5-[4-(5-{[(2R,6S)-2,6-dimethyl-4-morpholinyl]methyl}-1,3-oxazol-2-yl)-1H-indazol-6-yl]-2-(methyloxy)-3-pyridinyl]methanesulfonamide]				7.94 µM	4.65 µM		> 10 µM	> 10 µM	> 10 µM	> 10 µM	> 10 µM	> 10 µM	0.1%	13.7%	35%	inhibition at 10 µM (A/Victoria/3/75 (H3N2); 10 μM compound, read-out: inhibition observed at 10 μM): 11.4%
CC(C)N1CCN(Cc2cnc(-c3cc(-c4cccc5[nH]ccc45)cc4[nH]ncc34)o2)CC1 [Compound A, 6-(1H-indol-4-yl)-4-(5-{[4-(1-methylethyl)-1-piperazinyl]methyl}-1,3-oxazol-2-yl)-1H-indazole hydrochloride]				4.61 µM	3.53 µM	9.19 µM	> 10 µM	> 10 µM	> 10 µM	> 10 µM	> 10 µM	> 10 µM	21.4%	40.4%	15.9%	
